The source of these data is ChEMBL document CHEMBL1275373, “Identification by high-throughput screening of inhibitors of Schistosoma mansoni NAD(+) catabolizing enzyme” (Bioorg Med Chem, 2010).

As usually defined, the IC50 is the concentration needed to halve the response being measured. The Ki is a dissociation constant, usually derived from enzyme kinetics or from competition with a known ligand. Usually inhibition stands for the change of the read-out against control, counted positive when it falls.

Calls of active or inactive are those of the source. The rule behind the calls is not given here.

Tested on in the first assay: not listed separately
Kind of assay: Inhibition of Schistosoma mansoni recombinant NAD+ glycohydrolase expressed in Pichia pastoris by continuous fluorometric method.
`COc1cc(-c2[o+]c3cc(O)cc(O)c3cc2O)cc(O)c1O` [PETUNIDIN]: the 50% inhibitory concentration (IC50) was determined as 37.8 µM.

Turning to `O=c1c(O)c(-c2ccc(O)c(O)c2)oc2cc(O)cc(O)c12` [QUERCETIN], the IC50 came out at 3.9 µM.

Consider `Oc1ccc(/C=C/c2cc(O)cc(O)c2)cc1` [RESVERATROL], for which the IC50 was over 100 µM.

In the case of `O=c1c(O)c(-c2cc(O)c(O)c(O)c2)oc2cc(O)ccc12` [ROBINETIN], the IC50 is 5.8 µM.

As for `Oc1cc(O)c2cc(O)c(-c3cc(O)c(O)c(O)c3)[o+]c2c1` [DELPHINIDIN], the half-inhibitory concentration (IC50) amounted to 6 µM.

For `OC[C@H]1O[C@@H](Oc2cc3c(O)cc(O)cc3[o+]c2-c2ccc(O)c(O)c2)[C@H](O)[C@@H](O)[C@@H]1O` [KUROMANIN], the IC50 turned out to be 8.2 µM.

As to `Oc1ccc(-c2[o+]c3cc(O)c(O)c(O)c3cc2O)cc1O` [QUERCETAGETINIDIN], the 50% inhibitory concentration (IC50) was 6.1 µM.

As to `Oc1cc(O)c2ccc(-c3ccc(O)c(O)c3)[o+]c2c1` [LUTEOLINIDIN], the IC50 was 5.9 µM.

With `Oc1cc(O)c2cc(O)c(-c3ccc(O)c(O)c3)[o+]c2c1` [CYANIDIN], the concentration for half-maximal inhibition (IC50) worked out at 2.3 µM.

Regarding `COc1cc(-c2[o+]c3cc(O)cc(O)c3cc2O)cc(OC)c1O` [MALVIDIN], the concentration for half-maximal inhibition (IC50) turned out to be 8 µM.

Regarding `O=c1cc(-c2ccc(O)c(O)c2)oc2cc(O)cc(O)c12` [LUTEOLIN], the IC50 stood at 8.4 µM.

Consider `O=c1c(O)c(-c2cc(O)c(O)c(O)c2)oc2cc(O)cc(O)c12` [MYRICETIN], for which the IC50 was determined as 22 µM.

For `Oc1cc(O)cc(/C=C/c2ccc(O)c(O)c2)c1` [PICEATANNOL], the IC50 is over 100 µM.

For the compound `Oc1ccc(-c2[o+]c3cc(O)cc(O)c3cc2O)cc1` [PELARGONIDIN], the IC50 was 4.4 µM.

For `Oc1cc(O)c2c(c1)OC(c1ccc(O)c(O)c1)C(O)C2` (configuration not stated) [CATECHIN], the IC50 was over 100 µM.

For the compound `Oc1ccc2cc(O)c(-c3ccc(O)c(O)c3)[o+]c2c1` [FISETINIDIN], the half-inhibitory concentration (IC50) was found to be 6.4 µM.

For `O=c1c(O)c(-c2ccc(O)c(O)c2)oc2cc(O)c(O)c(O)c12` [QUERCETAGETIN], the half-inhibitory concentration (IC50) came out at 1.3 µM.

For `COc1ccc(-c2ccc3c(O)cc(O)cc3[o+]2)cc1O` [DIOSMETINIDIN], the IC50 was determined as 9.9 µM.

As for `O=C1c2c(O)cc(O)cc2OC(c2ccc(O)c(O)c2)C1O` (configuration not stated) [TAXIFOLIN], the IC50 came to 19.5 µM.

Target in another assay: not listed separately
Kind of assay: Competitive inhibition of Schistosoma mansoni recombinant NAD+ glycohydrolase expressed in Pichia pastoris by Michaelis-Menten equation analysis.
Regarding `Oc1cc(O)c2cc(O)c(-c3ccc(O)c(O)c3)[o+]c2c1` [CYANIDIN], the Ki came to 2.1 µM.

The subject of a further assay is Schistosoma mansoni. The experiment in a line: Inhibition of Schistosoma mansoni recombinant NAD+ glycohydrolase expressed in Pichia pastoris at up to 100 uM by continuous fluorometric method.
Turning to `Cc1ccc(C(=O)Nc2ccc(S(=O)(=O)O)c3cc(S(=O)(=O)O)cc(S(=O)(=O)O)c23)cc1NC(=O)c1cccc(NC(=O)Nc2cccc(C(=O)Nc3cc(C(=O)Nc4ccc(S(=O)(=O)O)c5cc(S(=O)(=O)O)cc(S(=O)(=O)O)c45)ccc3C)c2)c1`, the inhibition was under 10%.

As for `OC(c1cc(C(F)(F)F)nc2c(C(F)(F)F)cccc12)C1CCCCN1` (configuration not stated), the result was inactive.

With `COc1cc(/C=C/C(=O)CC(=O)/C=C/c2ccc(O)c(OC)c2)ccc1O`, the inhibition was under 10%.

For the compound `O=C1NC(=O)c2cccc3cccc1c23`, the inhibition is under 10%.

Consider `CN(C)CC(=O)Nc1ccc2[nH]c(=O)c3ccccc3c2c1`, for which the inhibition is under 10%.

Consider `O=C(C1CCCCC1)N1CC(=O)N2CCc3ccccc3C2C1` (configuration not stated), for which the inhibition was under 10%.

Consider `CCN(CC)CCCC(C)Nc1ccnc2cc(Cl)ccc12` (configuration not stated), for which the outcome was inactive.
